Laboratory results published in the supplement of paper PMC10307832.

How the values were obtained:
Assay in all cases: relative viability (nuclei count vs DMSO), 5 days (fraction); higher = more cells survive
[1] = compound: CCN1CCN(c2ccc(Nc3cc(N(C)C(=O)Nc4c(Cl)c(OC)cc(OC)c4Cl)ncn3)cc2)CC1 [BGJ398] + NC(=O)Nc1cc(-c2cccc(F)c2)sc1C(=O)N[C@H]1CCCNC1 [AZD7762] (partner 0.2 µM)
Procedure, shortened: (§1)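 Dosing by pin tool came one day after lung cancer cell lines were seeded in 1536-well plates, using either one drug or a fixed anchor-drug dose plus five library-drug doses (not always all listed) in √10 steps. After 5 days, nuclei were counted on 4× images. Relative viability is treated-well nuclei count divided by vehicle-well nuclei count, and values are medians of duplicate plates.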

[2] = compound: C1=CC2=NC=CN=C2C=C1/C=C/3\C(=O)NC(=O)S3 + CCNC(=O)c1noc(-c2cc(C(C)C)c(O)cc2O)c1-c1ccc(CN2CCOCC2)cc1 [Luminespib] (partner 0.01 µM)
Procedure, shortened: as §1

[3] = compound: CCN1CCN(c2ccc(Nc3cc(N(C)C(=O)Nc4c(Cl)c(OC)cc(OC)c4Cl)ncn3)cc2)CC1 [BGJ398] + CS(=O)(=O)N1CCN(Cc2cc3nc(-c4cccc5[nH]ncc45)nc(N4CCOCC4)c3s2)CC1 [Pictilisib] (partner 1 µM)
Procedure, shortened: as §1

[4] = compound: C1=CC2=NC=CN=C2C=C1/C=C/3\C(=O)NC(=O)S3 + O=C(c1cc(Cc2n[nH]c(=O)c3ccccc23)ccc1F)N1CCN(C(=O)C2CC2)CC1 [Olaparib] (partner 8 µM)
Procedure, shortened: as §1

Cell Line | relative viability ([1]; first compound 0.01 µM) | relative viability ([1]; first compound 0.03162 µM) | relative viability ([1]; first compound 0.1 µM) | relative viability ([1]; first compound 0.3162 µM) | relative viability ([1]; first compound 1 µM) | relative viability ([2]; first compound 0.02 µM) | relative viability ([2]; first compound 0.06325 µM) | relative viability ([2]; first compound 0.2 µM) | relative viability ([2]; first compound 0.6325 µM) | relative viability ([2]; first compound 2 µM) | relative viability ([3]; first compound 0.01 µM) | relative viability ([3]; first compound 0.03162 µM) | relative viability ([3]; first compound 0.1 µM) | relative viability ([3]; first compound 0.3162 µM) | relative viability ([3]; first compound 1 µM) | relative viability ([4]; first compound 0.02 µM) | relative viability ([4]; first compound 0.06325 µM) | relative viability ([4]; first compound 0.2 µM) | relative viability ([4]; first compound 0.6325 µM) | relative viability ([4]; first compound 2 µM)
H3255 | 0.837 | 0.681 | 1.01 | 0.78 | 0.826 | 0.879 | 0.793 | 0.909 | 0.857 | 0.809 | 0.484 | 0.138 | 0.462 | 0.344 | 0.506 | 0.583 | 0.509 | 0.56 | 0.594 | 0.517
NCI-H1437 | 1.13 | 1.23 | 1.14 | 1.17 | 1.19 | 1.09 | 1.14 | 1.05 | 1.08 | 1.12 | 0.375 | 0.514 | 0.439 | 0.494 | 0.561 | 0.584 | 0.648 | 0.623 | 0.643 | 0.653
LU99A | 0.429 | 0.336 | 0.4 | 0.234 | 0.273 | 0.296 | 0.207 | 0.294 | 0.267 | 0.24 | 0.281 | 0.314 | 0.302 | 0.307 | 0.261 | 0.28 | 0.416 | 0.276 | 0.243 | 0.26
HCC-827 | 0.26 | – | 0.212 | 0.121 | 0.256 | 0.716 | 0.871 | 0.64 | 0.587 | 0.746 | 0.961 | 0.696 | 0.977 | 0.817 | 1.03 | 0.654 | 0.528 | 0.585 | 0.593 | 0.662
LK-2 | 0.296 | 0.329 | 0.16 | 0.165 | 0.13 | 0.186 | 0.202 | 0.28 | 0.175 | 0.175 | 0.555 | 0.529 | 0.326 | 0.235 | 0.245 | 0.739 | 0.798 | 0.758 | 0.702 | 0.348
BEN | 0.729 | 0.648 | 0.687 | 0.583 | 0.578 | 0.631 | 0.19 | 0.402 | 0.332 | 0.314 | 0.491 | 0.609 | 0.534 | 0.478 | 0.473 | 1.09 | 1.05 | 1.02 | 1.12 | 1.03
NCI-H23 | 0.228 | 0.267 | 0.252 | 0.232 | 0.225 | 0.254 | 0.219 | 0.219 | 0.217 | 0.184 | 0.545 | 0.487 | 0.477 | 0.461 | 0.411 | 0.236 | 0.326 | 0.313 | 0.35 | 0.255
NCI-H1395 | 0.372 | 0.366 | 0.355 | 0.352 | 0.352 | 0.807 | 0.693 | 0.719 | 0.607 | 0.794 | 0.664 | 0.674 | 0.568 | 0.357 | 0.364 | 0.43 | 0.427 | 0.464 | 0.5 | 0.438
